Test results taken from PubChem BioAssay (NCI).
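Tested at 5 concentrations; 48 h exposure; 96-well plates; endpoints linearly interpolated, else capped at highest concentration. TGI marks complete inhibition of growth.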

Assays:
Assay in all cases: inhibition of tumour cell growth, NCI panel, 48 h
HS 578T breast = test system: HS 578T breast
K-562 leukemia = test system: K-562 leukemia
HT29 colon = test system: HT29 colon
MOLT-4 leukemia = test system: MOLT-4 leukemia
MALME-3M melanoma = test system: MALME-3M melanoma
CCRF-CEM leukemia = test system: CCRF-CEM leukemia
SW-620 colon = test system: SW-620 colon
KM12 colon = test system: KM12 colon
SF-539 CNS = test system: SF-539 CNS
OVCAR-3 ovarian = test system: OVCAR-3 ovarian

Structure (SMILES): Cc1c(O)nc(-n2[nH]c3c(c2=O)CCCC3)[nH]c1=O
- TGI (HS 578T breast): > 100 µM
- TGI (K-562 leukemia): > 100 µM
- TGI (HT29 colon): > 100 µM
- TGI (MOLT-4 leukemia): > 100 µM
- TGI (MALME-3M melanoma): > 100 µM
- TGI (CCRF-CEM leukemia): > 100 µM
- TGI (SW-620 colon): > 100 µM
- TGI (KM12 colon): > 100 µM

Structure (SMILES): C=C(C(=O)OCC)C(=O)OCC
- TGI (SF-539 CNS): > 100 µM
- TGI (HS 578T breast): > 100 µM
- TGI (K-562 leukemia): > 100 µM
- TGI (HT29 colon): > 100 µM
- TGI (MOLT-4 leukemia): > 100 µM
- TGI (MALME-3M melanoma): > 100 µM
- TGI (OVCAR-3 ovarian): > 100 µM
- TGI (CCRF-CEM leukemia): > 100 µM
- TGI (SW-620 colon): > 100 µM
- TGI (KM12 colon): > 100 µM

Structure (SMILES): CCCCCCCCCCCCCCCCNc1cccc2ccccc12
- TGI (SF-539 CNS): > 100 µM
- TGI (K-562 leukemia): > 100 µM
- TGI (MOLT-4 leukemia): > 100 µM
- TGI (MALME-3M melanoma): > 100 µM
- TGI (OVCAR-3 ovarian): > 100 µM
- TGI (CCRF-CEM leukemia): > 100 µM
- TGI (SW-620 colon): > 100 µM
- TGI (KM12 colon): > 100 µM

Structure (SMILES): CCOC(=O)C1S/C(=N\C(=N)N[N+](=O)[O-])N=C1C (stereo not given)
- TGI (SF-539 CNS): > 100 µM
- TGI (K-562 leukemia): > 100 µM
- TGI (HT29 colon): > 100 µM
- TGI (MOLT-4 leukemia): > 100 µM
- TGI (MALME-3M melanoma): > 100 µM
- TGI (OVCAR-3 ovarian): > 100 µM
- TGI (SW-620 colon): > 100 µM
- TGI (KM12 colon): > 100 µM

Structure (SMILES): Cc1ccc(C2=CC(=O)OC(C[P+](c3ccccc3)(c3ccccc3)c3ccccc3)(c3ccccc3)O2)cc1 (stereo not given)
- TGI (SF-539 CNS): 33.8 µM
- TGI (HS 578T breast): 42.6 µM
- TGI (K-562 leukemia): > 100 µM
- TGI (HT29 colon): 29.1 µM
- TGI (MOLT-4 leukemia): 67 µM
- TGI (MALME-3M melanoma): 30.5 µM
- TGI (OVCAR-3 ovarian): 30.7 µM
- TGI (CCRF-CEM leukemia): 99.4 µM
- TGI (KM12 colon): 34.3 µM

Structure (SMILES): CC(NC(=O)Cc1ccccc1)NC(=O)C(C)C(=O)Nc1ccccc1 (stereo not given)
- TGI (SF-539 CNS): > 100 µM
- TGI (HS 578T breast): 88 µM
- TGI (K-562 leukemia): > 100 µM
- TGI (HT29 colon): > 100 µM
- TGI (MOLT-4 leukemia): > 100 µM
- TGI (MALME-3M melanoma): > 100 µM
- TGI (SW-620 colon): > 100 µM
- TGI (KM12 colon): > 100 µM

Structure (SMILES): Cc1c(/C=N\NC(=S)NCCNC(=S)N/N=C\c2c(C)n(C)n(-c3ccccc3)c2=O)c(=O)n(-c2ccccc2)n1C
- TGI (SF-539 CNS): > 100 µM
- TGI (HS 578T breast): > 100 µM
- TGI (HT29 colon): > 100 µM
- TGI (MOLT-4 leukemia): > 100 µM
- TGI (MALME-3M melanoma): > 100 µM
- TGI (OVCAR-3 ovarian): > 100 µM
- TGI (SW-620 colon): > 100 µM
- TGI (KM12 colon): > 100 µM

Structure (SMILES): COc1ccc(C2c3cn[nH]c3CC3CCCCC32)cc1 (stereo not given)
- TGI (K-562 leukemia): 98.6 µM
- TGI (HT29 colon): 41.4 µM
- TGI (MOLT-4 leukemia): 46.1 µM
- TGI (MALME-3M melanoma): 38.4 µM
- TGI (OVCAR-3 ovarian): 28.9 µM
- TGI (CCRF-CEM leukemia): 53.9 µM
- TGI (SW-620 colon): 35.4 µM

Structure (SMILES): COC(=O)C(Cc1ccc2c(c1)CCC2)Cc1ccc2c(c1)CCC2
- TGI (SF-539 CNS): > 100 µM
- TGI (HS 578T breast): > 100 µM
- TGI (K-562 leukemia): > 100 µM
- TGI (HT29 colon): > 100 µM
- TGI (MOLT-4 leukemia): > 100 µM
- TGI (OVCAR-3 ovarian): > 100 µM
- TGI (CCRF-CEM leukemia): > 100 µM
- TGI (SW-620 colon): > 100 µM
- TGI (KM12 colon): > 100 µM

Structure (SMILES): C/C(C[n+]1ccccc1)=N\N=C(N)N
- TGI (HS 578T breast): > 100 µM
- TGI (K-562 leukemia): > 100 µM
- TGI (HT29 colon): > 100 µM
- TGI (MOLT-4 leukemia): > 100 µM
- TGI (MALME-3M melanoma): > 100 µM
- TGI (OVCAR-3 ovarian): > 100 µM
- TGI (CCRF-CEM leukemia): > 100 µM
- TGI (SW-620 colon): > 100 µM
- TGI (KM12 colon): > 100 µM

Structure (SMILES): CC(=O)NC1C(OCc2ccccc2)OC(CO)C(O)C1OCC(=O)N[C@@H](C)C(=O)N[C@H](CCC(=O)NCCCNc1c2ccccc2nc2cccc([N+](=O)[O-])c12)C(N)=O (stereo not given in full)
- TGI (SF-539 CNS): 0.279 µM
- TGI (HS 578T breast): 0.675 µM
- TGI (K-562 leukemia): > 39.8 µM
- TGI (HT29 colon): 0.199 µM
- TGI (MOLT-4 leukemia): 11 µM
- TGI (MALME-3M melanoma): 0.129 µM
- TGI (OVCAR-3 ovarian): 0.566 µM
- TGI (CCRF-CEM leukemia): > 100 µM
- TGI (KM12 colon): 0.397 µM

Structure (SMILES): C[C@H](CCC(=O)O)[C@H]1CC[C@H]2[C@@H]3C(=O)C[C@@H]4C[C@H](O)CC[C@]4(C)[C@H]3C[C@H](O)[C@]12C
- TGI (SF-539 CNS): > 100 µM
- TGI (HS 578T breast): 78.9 µM
- TGI (K-562 leukemia): > 100 µM
- TGI (HT29 colon): > 100 µM
- TGI (MOLT-4 leukemia): > 100 µM
- TGI (MALME-3M melanoma): > 100 µM
- TGI (CCRF-CEM leukemia): > 100 µM
- TGI (SW-620 colon): > 100 µM
- TGI (KM12 colon): > 100 µM

Structure (SMILES): C=C1CC(C#N)(C#N)[C@H]2C3CCCC3C[C@@H]12 (stereo not given in full) (tested in a mixture with another compound)
- TGI (SF-539 CNS): 50.2 µM
- TGI (HS 578T breast): > 100 µM
- TGI (K-562 leukemia): 82.8 µM
- TGI (HT29 colon): 28.1 µM
- TGI (MOLT-4 leukemia): 43.5 µM
- TGI (OVCAR-3 ovarian): 38.9 µM
- TGI (SW-620 colon): 29.7 µM
- TGI (KM12 colon): 43.3 µM

Structure (SMILES): CC(C)c1cc2c(c(O)c1O)[C@@]1(C(=O)O)CCCC(C)(C)[C@@H]1CC2
- TGI (SF-539 CNS): 38.8 µM
- TGI (HS 578T breast): 67.8 µM
- TGI (K-562 leukemia): > 100 µM
- TGI (HT29 colon): 30.7 µM
- TGI (MOLT-4 leukemia): 37.2 µM
- TGI (OVCAR-3 ovarian): 57.3 µM
- TGI (CCRF-CEM leukemia): 42.3 µM
- TGI (SW-620 colon): > 100 µM
- TGI (KM12 colon): 27 µM

Structure (SMILES): Cc1nc(C)c(C(=O)NNC(=O)C[N+](C)(C)C)cc1C(=O)NNC(=O)C[N+](C)(C)C
- TGI (SF-539 CNS): > 100 µM
- TGI (HT29 colon): > 100 µM
- TGI (OVCAR-3 ovarian): > 100 µM
- TGI (SW-620 colon): > 100 µM
- TGI (KM12 colon): > 100 µM

Structure (SMILES): O=C1OCC/C1=N/O
- TGI (SF-539 CNS): > 100 µM
- TGI (K-562 leukemia): > 100 µM
- TGI (HT29 colon): > 100 µM
- TGI (MOLT-4 leukemia): > 100 µM
- TGI (MALME-3M melanoma): > 100 µM
- TGI (OVCAR-3 ovarian): > 100 µM
- TGI (CCRF-CEM leukemia): > 100 µM
- TGI (SW-620 colon): > 100 µM
- TGI (KM12 colon): > 100 µM

Structure (SMILES): CC(C)(C)[Si](C)(C)OCC1OC(n2ccc(=O)[nH]c2=O)C(O[Si](C)(C)C(C)(C)C)/C1=C/C#N (stereo not given)
- TGI (SF-539 CNS): > 64 µM
- TGI (HS 578T breast): > 100 µM
- TGI (HT29 colon): > 47.7 µM
- TGI (MOLT-4 leukemia): > 21.1 µM
- TGI (MALME-3M melanoma): > 100 µM
- TGI (OVCAR-3 ovarian): > 100 µM
- TGI (CCRF-CEM leukemia): > 100 µM
- TGI (SW-620 colon): > 100 µM
- TGI (KM12 colon): > 42.2 µM

Structure (SMILES): CC(O)CNC(=O)C(C)Oc1ccc(OCC2CCCCC2)cc1 (stereo not given)
- TGI (SF-539 CNS): > 100 µM
- TGI (K-562 leukemia): > 100 µM
- TGI (HT29 colon): > 100 µM
- TGI (MOLT-4 leukemia): > 100 µM
- TGI (MALME-3M melanoma): > 100 µM
- TGI (OVCAR-3 ovarian): > 100 µM
- TGI (CCRF-CEM leukemia): > 100 µM
- TGI (KM12 colon): > 100 µM

Structure (SMILES): O=C(O)[C@H]1CCCN1CP(=O)(O)CN1CCC[C@@H]1C(=O)O
- TGI (HS 578T breast): > 100 µM
- TGI (K-562 leukemia): > 100 µM
- TGI (HT29 colon): > 100 µM
- TGI (MOLT-4 leukemia): > 100 µM
- TGI (MALME-3M melanoma): > 100 µM
- TGI (OVCAR-3 ovarian): > 100 µM
- TGI (CCRF-CEM leukemia): > 100 µM
- TGI (SW-620 colon): > 100 µM
- TGI (KM12 colon): > 100 µM

Structure (SMILES): O=C1c2ccccc2C(=O)N1n1c(Cc2ccc([N+](=O)[O-])cc2)n[nH]c1=O
- TGI (SF-539 CNS): > 100 µM
- TGI (K-562 leukemia): > 100 µM
- TGI (HT29 colon): > 100 µM
- TGI (MOLT-4 leukemia): > 100 µM
- TGI (MALME-3M melanoma): > 100 µM
- TGI (OVCAR-3 ovarian): > 100 µM
- TGI (SW-620 colon): > 100 µM
- TGI (KM12 colon): > 100 µM

Structure (SMILES): C[N+](C)([O-])CCOc1cc2c(c3ccccc13)-c1ccccc1C2=O
- TGI (SF-539 CNS): 38.4 µM
- TGI (K-562 leukemia): > 95.2 µM
- TGI (HT29 colon): > 35.6 µM
- TGI (MOLT-4 leukemia): > 35.3 µM
- TGI (MALME-3M melanoma): 28.9 µM
- TGI (OVCAR-3 ovarian): > 52.6 µM
- TGI (CCRF-CEM leukemia): > 83.7 µM
- TGI (SW-620 colon): 86.3 µM
- TGI (KM12 colon): 66.5 µM

Structure (SMILES): O=P(O)(O)C(N=C(Nc1ccccc1)Nc1ccccc1)P(=O)(O)O
- TGI (SF-539 CNS): > 100 µM
- TGI (HS 578T breast): > 100 µM
- TGI (HT29 colon): > 100 µM
- TGI (MALME-3M melanoma): > 100 µM
- TGI (OVCAR-3 ovarian): > 100 µM
- TGI (KM12 colon): > 100 µM

Structure (SMILES): CCOC(=O)c1c(-c2ccc(O)c(OC)c2)c(C#N)c(=S)n(C2OC(CO)C(O)C(O)C2O)c1-c1ccccc1 (stereo not given)
- TGI (HS 578T breast): > 100 µM
- TGI (K-562 leukemia): > 100 µM
- TGI (HT29 colon): > 100 µM
- TGI (MOLT-4 leukemia): > 100 µM
- TGI (OVCAR-3 ovarian): > 100 µM
- TGI (CCRF-CEM leukemia): > 100 µM
- TGI (SW-620 colon): > 100 µM
- TGI (KM12 colon): > 100 µM
